Experimental data: ChEMBL document CHEMBL2177054, “Rational design of conformationally constrained cyclopentapeptide antagonists for C-x-C chemokine receptor 4 (CXCR4)” (J Med Chem, 2012)

Target: C-X-C chemokine receptor type 4 (Homo sapiens, UniProt P61073)
Assay: Antagonist activity against human CXCR4 expressed in COS7 cells assessed as inhibition of CXCL12-induced myo-[3H]inositol production by scintillation counting
Format: functional, cell-based, COS-7

Chain of C-X-C chemokine receptor type 4 (P61073 whole entry): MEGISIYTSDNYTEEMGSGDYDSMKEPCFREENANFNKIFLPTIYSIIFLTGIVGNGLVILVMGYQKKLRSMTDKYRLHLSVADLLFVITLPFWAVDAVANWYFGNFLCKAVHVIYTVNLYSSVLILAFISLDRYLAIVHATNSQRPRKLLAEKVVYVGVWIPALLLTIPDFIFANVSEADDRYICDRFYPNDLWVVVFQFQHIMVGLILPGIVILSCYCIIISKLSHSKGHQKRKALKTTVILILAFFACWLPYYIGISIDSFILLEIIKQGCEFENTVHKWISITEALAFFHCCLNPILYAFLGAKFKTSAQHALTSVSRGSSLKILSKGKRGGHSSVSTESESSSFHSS

| SMILES | EC50 |
| --- | --- |
| N=C(N)NCCC[C@@H]1NC(=O)C2(CCCCC2)NC(=O)[C@@H](Cc2ccc(O)cc2)NC(=O)CNC(=O)[C@H](Cc2ccc3ccccc3c2)NC1=O | 5.4 µM |
| N=C(N)NCCC[C@@H]1NC(=O)CNC(=O)[C@@H](Cc2ccc(O)cc2)NC(=O)CNC(=O)[C@H](Cc2ccc3ccccc3c2)NC1=O | 36 µM |
| N=C(N)NCCC[C@@H]1NC(=O)C2(CCNCC2)NC(=O)[C@@H](Cc2ccc(O)cc2)NC(=O)CNC(=O)[C@H](Cc2ccc3ccccc3c2)NC1=O | 0.56 µM |
| N=C(N)NCCC[C@@H]1NC(=O)[C@H](Cc2ccccc2)NC(=O)[C@@H](Cc2ccc(O)cc2)NC(=O)CNC(=O)[C@H](Cc2ccc3ccccc3c2)NC1=O | 7.2 µM |
| NC(=O)NCCC[C@@H]1NC(=O)[C@H](CCCNC(N)=O)NC(=O)[C@@H](Cc2ccc(O)cc2)NC(=O)CNC(=O)[C@H](Cc2ccc3ccccc3c2)NC1=O | > 100 µM |
| N=C(N)NCCC[C@@H]1NC(=O)[C@H](Cc2ccc(NC(=N)N)cc2)NC(=O)[C@@H](Cc2ccc(O)cc2)NC(=O)CNC(=O)[C@H](Cc2ccc3ccccc3c2)NC1=O | 0.68 µM |
| N=C(N)NCCC[C@@H]1NC(=O)C2(CCN(C(=N)N)CC2)NC(=O)[C@@H](Cc2ccc(O)cc2)NC(=O)CNC(=O)[C@H](Cc2ccc3ccccc3c2)NC1=O | 0.26 µM |
| N=C(N)NCCC[C@@H]1NC(=O)[C@H](Cc2ccc(N)cc2)NC(=O)[C@@H](Cc2ccc(O)cc2)NC(=O)CNC(=O)[C@H](Cc2ccc3ccccc3c2)NC1=O | 15 µM |
| N=C(N)NCCC[C@@H]1NC(=O)[C@@H](Cc2ccc(O)cc2)NC(=O)CNC(=O)[C@H](Cc2ccc3ccccc3c2)NC(=O)[C@H](CCCNC(N)=O)NC1=O | > 100 µM |
| CC1(C)NC(=O)[C@@H](Cc2ccc(O)cc2)NC(=O)CNC(=O)[C@H](Cc2ccc3ccccc3c2)NC(=O)[C@H](CCCNC(=N)N)NC1=O | 3.6 µM |
| N=C(N)NCCC[C@@H]1NC(=O)[C@H](CCCNC(N)=O)NC(=O)[C@@H](Cc2ccc(O)cc2)NC(=O)CNC(=O)[C@H](Cc2ccc3ccccc3c2)NC1=O | 2.9 µM |
